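All cell lines were grown in 96-well plates and treated with compound for 48 hours. The concentration for 50% growth inhibition is given as GI50. TGI: total growth inhibition.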
Assays:
Assay in all cases: NCI-60 cell line screen, 48 h
MCF7 breast = tested on: MCF7 breast
RPMI-8226 leukemia = tested on: RPMI-8226 leukemia
CAKI-1 renal = tested on: CAKI-1 renal
UO-31 renal = tested on: UO-31 renal
MDA-MB-435 = tested on: MDA-MB-435
MDA-MB-231 breast = tested on: MDA-MB-231 breast
MOLT-4 leukemia = tested on: MOLT-4 leukemia
PC-3 prostate = tested on: PC-3 prostate
UACC-257 melanoma = tested on: UACC-257 melanoma
SR leukemia = tested on: SR leukemia

O=[N+]([O-])c1ccc(/C=C/c2nc3ccc(Cl)cc3[nH]2)cc1
GI50 (MCF7 breast): 21.5 µM | TGI (MCF7 breast): > 100 µM | GI50 (RPMI-8226 leukemia): 31.4 µM | TGI (RPMI-8226 leukemia): > 100 µM | GI50 (CAKI-1 renal): 34.6 µM | TGI (CAKI-1 renal): 91 µM | GI50 (UO-31 renal): 30 µM | TGI (UO-31 renal): > 100 µM | GI50 (MDA-MB-435): 5360 nM | TGI (MDA-MB-435): > 100 µM | GI50 (MDA-MB-231 breast): 26.5 µM | TGI (MDA-MB-231 breast): > 100 µM | GI50 (MOLT-4 leukemia): 59.7 µM | TGI (MOLT-4 leukemia): > 100 µM | GI50 (PC-3 prostate): 21.8 µM | TGI (PC-3 prostate): > 100 µM | GI50 (UACC-257 melanoma): > 100 µM | TGI (UACC-257 melanoma): > 100 µM | GI50 (SR leukemia): 4.95 µM | TGI (SR leukemia): > 100 µM

CC(=O)OCC12CN(C#N)C3C4COC(CC41)C1(C(=O)N(C)c4ccccc41)C32 (stereo not given)
TGI (MCF7 breast): 41.4 µM | TGI (RPMI-8226 leukemia): > 100 µM | TGI (CAKI-1 renal): 82.9 µM | TGI (UO-31 renal): 31.4 µM | TGI (MDA-MB-435): > 100 µM | TGI (MDA-MB-231 breast): 64.9 µM | TGI (MOLT-4 leukemia): > 100 µM | TGI (PC-3 prostate): > 100 µM | TGI (UACC-257 melanoma): 51.8 µM | TGI (SR leukemia): 68.3 µM

ClCCCSSCCCCl
TGI (MCF7 breast): 97.6 µM | TGI (RPMI-8226 leukemia): > 100 µM | TGI (CAKI-1 renal): > 100 µM | TGI (UO-31 renal): > 100 µM | TGI (MDA-MB-435): > 60.5 µM | TGI (MDA-MB-231 breast): > 80.2 µM | TGI (MOLT-4 leukemia): 7.42 µM | TGI (PC-3 prostate): 85.5 µM | TGI (UACC-257 melanoma): > 100 µM | TGI (SR leukemia): > 25.8 µM

COc1ccc(-c2cc(/C=C3\C(=O)Nc4cc(Cl)ccc43)[nH]n2)cc1
GI50 (MCF7 breast): 2.19 µM | TGI (MCF7 breast): 37.3 µM | GI50 (RPMI-8226 leukemia): 3.3 µM | TGI (RPMI-8226 leukemia): 40 µM | GI50 (CAKI-1 renal): 1.63 µM | TGI (CAKI-1 renal): 21.6 µM | GI50 (UO-31 renal): 3.49 µM | TGI (UO-31 renal): > 100 µM | GI50 (MDA-MB-435): 416 nM | TGI (MDA-MB-435): 2.11 µM | GI50 (MDA-MB-231 breast): 4.09 µM | TGI (MDA-MB-231 breast): > 100 µM | GI50 (MOLT-4 leukemia): 4.17 µM | TGI (MOLT-4 leukemia): > 100 µM | GI50 (PC-3 prostate): 2.75 µM | TGI (PC-3 prostate): > 100 µM | GI50 (UACC-257 melanoma): 26.3 µM | TGI (UACC-257 melanoma): > 100 µM | GI50 (SR leukemia): 2.44 µM | TGI (SR leukemia): 14.1 µM

Cn1cc(C2=C(c3c4n(c5ccccc35)CCNC4)C(=O)NC2=O)c2ccccc21
GI50 (MCF7 breast): 4.78 µM | TGI (MCF7 breast): > 23.8 µM | GI50 (RPMI-8226 leukemia): 10.1 µM | TGI (RPMI-8226 leukemia): > 22.3 µM | GI50 (CAKI-1 renal): 5.85 µM | TGI (CAKI-1 renal): > 22.3 µM | GI50 (UO-31 renal): 4.53 µM | TGI (UO-31 renal): > 22.2 µM | GI50 (MDA-MB-435): 991 nM | TGI (MDA-MB-435): > 17.1 µM | GI50 (MDA-MB-231 breast): 9.87 µM | TGI (MDA-MB-231 breast): > 25 µM | GI50 (MOLT-4 leukemia): 11 µM | TGI (MOLT-4 leukemia): > 25 µM | GI50 (PC-3 prostate): 7.02 µM | TGI (PC-3 prostate): > 25 µM | GI50 (UACC-257 melanoma): > 11.4 µM | TGI (UACC-257 melanoma): > 20.2 µM | GI50 (SR leukemia): 3.73 µM | TGI (SR leukemia): > 25 µM

From PubChem BioAssay (NCI)
